Test results published in patent US12655116B2, “Substituted isophthalic acid diamides” (Bayer Aktiengesellschaft, priority 2020, dated 2026).

Assays:
DIGSA [1] = assay: Pre-emergence herbicidal action against DIGSA; assay type: in vivo, Digitaria sanguinalis
Procedure, shortened: (§1)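 Greenhouse pots of sandy loam held seeds covered with soil, onto which the compound was applied before emergence. An aqueous suspension or emulsion of WP or EC was used at 600 to 800 l/ha with 0.2% wetting agent. Percent damage was judged visually at 3 weeks.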

STEME [2] = assay: Pre-emergence herbicidal action against STEME; assay type: in vivo, Stellaria media
Procedure, shortened: as §1

VIOTR [3] = assay: Pre-emergence herbicidal action against VIOTR; assay type: in vivo, Viola tricolor
Procedure, shortened: as §1

VERPE [4] = assay: Pre-emergence herbicidal action against VERPE; assay type: in vivo, Veronica persica; conditions: dosage 80 g/ha
Procedure, shortened: as §1

AMARE [5] = assay: Pre-emergence herbicidal action against AMARE; assay type: in vivo, Amaranthus retroflexus
Procedure, shortened: as §1

AMARE [6] = assay: Post-emergence herbicidal action against AMARE; assay type: in vivo, Amaranthus retroflexus; conditions: 20 g/ha, visual assessment about 3 weeks after treatment, 100% = plants have died, 0% = like control plants
Procedure, shortened: (§2)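 A WP or EC formulation diluted in water with 0.2% wetting agent was sprayed at 600 to 800 l/ha onto one-leaf-stage plants grown in sandy loam. About 3 weeks later, action was rated visually in percent, 100% being dead plants.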

MATIN [7] = assay: Pre-emergence herbicidal action against MATIN; assay type: in vivo, Matricaria inodora
Procedure, shortened: as §1

ABUTH [8] = assay: Post-emergence herbicidal action against ABUTH; assay type: in vivo, Abutilon theophrasti; conditions: visual assessment about 3 weeks after treatment vs untreated controls
Procedure, shortened: as §2

STEME [9] = assay: Post-emergence herbicidal action against STEME; assay type: in vivo, Stellaria media
Procedure, shortened: as §2

POLCO [10] = assay: Post-emergence herbicidal action against POLCO; assay type: in vivo, Polygonum convolvulus; conditions: dosage 20 g/ha
Procedure, shortened: as §2

ABUTH [11] = assay: Pre-emergence herbicidal action against ABUTH; assay type: in vivo, Abutilon theophrasti
Procedure, shortened: as §1

AVEFA [12] = assay: Pre-emergence herbicidal action against AVEFA; assay type: in vivo, Avena fatua; conditions: 80 g/ha, pre-emergence
Procedure, shortened: as §1

VIOTR [13] = assay: Post-emergence herbicidal action against VIOTR; assay type: in vivo, Viola tricolor; conditions: 20 g/ha
Procedure, shortened: as §2

ECHCG [14] = assay: Post-emergence herbicidal action against ECHCG; assay type: in vivo, Echinochloa crus-galli; conditions: Echinochloa crus-galli, 504 h
Procedure, shortened: as §2

VERPE [15] = assay: Post-emergence herbicidal action against VERPE; assay type: in vivo, Veronica persica; conditions: Veronica persica, 504 h
Procedure, shortened: as §2

SETVI [16] = assay: Pre-emergence herbicidal action against SETVI; assay type: in vivo, Setaria viridis; conditions: Setaria viridis, 504 h, dosage 80 g/ha
Procedure, shortened: as §1

PHBPU [17] = assay: Pre-emergence herbicidal action against PHBPU; assay type: in vivo, Pharbitis purpurea; conditions: Ipomoea purpurea, 504 h, dosage 80 g/ha
Procedure, shortened: as §1

PHBPU [18] = assay: Post-emergence herbicidal action against PHBPU; assay type: in vivo, Pharbitis purpurea; conditions: Ipomoea purpurea, 504 h
Procedure, shortened: as §2

ECHCG [19] = assay: Pre-emergence herbicidal action against ECHCG; assay type: in vivo, Echinochloa crus-galli; conditions: Echinochloa crus-galli, 504 h
Procedure, shortened: as §1

MATIN [20] = assay: Post-emergence herbicidal action against MATIN; assay type: in vivo, Matricaria inodora; conditions: Tripleurospermum inodorum, 504 h
Procedure, shortened: as §2

POLCO [21] = assay: Pre-emergence herbicidal action against POLCO; assay type: in vivo, Polygonum convolvulus; conditions: Fallopia convolvulus, 504 h, dosage 80 g/ha
Procedure, shortened: as §1

AVEFA [22] = assay: Post-emergence herbicidal action against AVEFA; assay type: in vivo, Avena fatua; conditions: Avena fatua, 504 h, 20 g/ha, visual assessment about 3 weeks after treatment, 100% = plants have died, 0% = like control plants
Procedure, shortened: as §2

SETVI [23] = assay: Post-emergence herbicidal action against SETVI; assay type: in vivo, Setaria viridis; conditions: Setaria viridis, 504 h
Procedure, shortened: as §2

ALOMY [24] = assay: Post-emergence herbicidal action against ALOMY; assay type: in vivo, Alopecurus myosuroides; conditions: Alopecurus myosuroides, 504 h, dosage 20 g/ha, visual assessment about 3 weeks after treatment vs untreated controls
Procedure, shortened: as §2

ALOMY [25] = assay: Pre-emergence herbicidal action against ALOMY; assay type: in vivo, Alopecurus myosuroides; conditions: Alopecurus myosuroides, 504 h; 80 g/ha, pre-emergence, scored visually after 3 weeks vs untreated controls (100% = plants have died, 0% = like control plants)
Procedure, shortened: as §1

DIGSA [26] = assay: Post-emergence herbicidal action against DIGSA; assay type: in vivo, Digitaria sanguinalis; conditions: Digitaria sanguinalis, 504 h
Procedure, shortened: as §2

[27] = 80 g/ha, scored visually after 3 weeks vs untreated controls (100% = plants have died, 0% = like control plants)

SMILES: CCCn1nnnc1NC(=O)c1ccc(S(C)(=O)=O)c(C(=O)NC2CC2)c1Cl [Example 3-125]
- Pre-emergence action against DIGSA in % (DIGSA [1]; dosage 80 g/ha): 80%
- Pre-emergence action against STEME in % (STEME [2]; dosage 20 g/ha): 90%
- Pre-emergence action against STEME in % (STEME [2]; dosage 80 g/ha): 100%
- Pre-emergence action against VIOTR in % (VIOTR [3]; dosage 80 g/ha): 100%
- Pre-emergence action against VERPE in % (VERPE [4]): 80%
- Pre-emergence action against AMARE in % (AMARE [5]; [27]): 100%
- Post-emergence action at 20 g/ha against AMARE in % (AMARE [6]): 90%
- Pre-emergence action against MATIN in % (MATIN [7]; dosage 20 g/ha): 100%
- Pre-emergence action against MATIN in % (MATIN [7]; dosage 80 g/ha): 100%
- Post-emergence action against ABUTH in % (ABUTH [8]; dosage 20 g/ha): 80%
- Post-emergence action against STEME in % (STEME [9]; 20 g/ha): 80%
- Post-emergence action against POLCO in % (POLCO [10]): 80%
- Pre-emergence action against ABUTH (herbicidal activity) (ABUTH [11]; [27]): 100%
- Pre-emergence action against AVEFA in % (AVEFA [12]): 80%
- Post-emergence action against VIOTR in % (VIOTR [13]): 80%

SMILES: CCNC(=O)c1c(C(F)F)ccc(C(=O)Nc2nnnn2C)c1SC [Example 1-88]
- pest or weed control at 5 g/ha (ECHCG [14]; dosage 5 g/ha): 80%
- pest or weed control at 20 g/ha (ECHCG [14]; dosage 20 g/ha): 90%
- pest or weed control at 20 g/ha (DIGSA [1]; Digitaria sanguinalis, 504 h, dosage 20 g/ha): 100%
- pest or weed control at 80 g/ha (DIGSA [1]; Digitaria sanguinalis, 504 h, dosage 80 g/ha): 100%
- pest or weed control at 20 g/ha (STEME [2]; Stellaria media, 504 h, dosage 20 g/ha): 100%
- pest or weed control at 80 g/ha (STEME [2]; Stellaria media, 504 h, dosage 80 g/ha): 100%
- pest or weed control at 5 g/ha (VERPE [15]; 5 g/ha): 80%
- pest or weed control at 20 g/ha (VERPE [15]; 20 g/ha): 90%
- pest or weed control at 20 g/ha (VIOTR [3]; Viola tricolor, 504 h, dosage 20 g/ha): 100%
- pest or weed control at 80 g/ha (VIOTR [3]; Viola tricolor, 504 h, dosage 80 g/ha): 100%
- pest or weed control at 80 g/ha (SETVI [16]): 100%
- pest or weed control at 80 g/ha (VERPE [4]; Veronica persica, 504 h): 100%
- pest or weed control at 80 g/ha (PHBPU [17]): 90%
- pest or weed control at 20 g/ha (AMARE [5]; Amaranthus retroflexus, 504 h, 20 g/ha, scored visually after 3 weeks vs untreated controls, 100% = plants have died, 0% = like control plants): 100%
- pest or weed control at 80 g/ha (AMARE [5]; Amaranthus retroflexus, 504 h, 80 g/ha, scored visually after 3 weeks vs untreated controls, 100% = plants have died, 0% = like control plants): 100%
- pest or weed control at 5 g/ha (PHBPU [18]; dosage 5 g/ha): 80%
- pest or weed control at 20 g/ha (PHBPU [18]; dosage 20 g/ha): 90%
- pest or weed control at 20 g/ha (AMARE [6]; Amaranthus retroflexus, 504 h): 90%
- pest or weed control at 20 g/ha (ECHCG [19]; 20 g/ha): 90%
- pest or weed control at 80 g/ha (ECHCG [19]; 80 g/ha): 100%
- pest or weed control at 20 g/ha (MATIN [7]; Tripleurospermum inodorum, 504 h, dosage 20 g/ha): 100%
- pest or weed control at 80 g/ha (MATIN [7]; Tripleurospermum inodorum, 504 h, dosage 80 g/ha): 100%
- pest or weed control at 5 g/ha (ABUTH [8]; Abutilon theophrasti, 504 h, dosage 5 g/ha): 90%
- pest or weed control at 20 g/ha (ABUTH [8]; Abutilon theophrasti, 504 h, dosage 20 g/ha): 90%
- pest or weed control at 5 g/ha (MATIN [20]; dosage 5 g/ha): 80%
- pest or weed control at 20 g/ha (MATIN [20]; dosage 20 g/ha): 80%
- pest or weed control at 80 g/ha (POLCO [21]): 80%
- pest or weed control at 20 g/ha (AVEFA [22]): 80%
- pest or weed control at 5 g/ha (SETVI [23]; dosage 5 g/ha): 80%
- pest or weed control at 20 g/ha (SETVI [23]; dosage 20 g/ha): 90%
- pest or weed control at 20 g/ha (STEME [9]; Stellaria media, 504 h, 20 g/ha): 90%
- pest or weed control at 5 g/ha (STEME [9]; Stellaria media, 504 h, dosage 5 g/ha): 90%
- pest or weed control at 20 g/ha (ALOMY [24]): 80%
- pest or weed control at 20 g/ha (POLCO [10]; Fallopia convolvulus, 504 h): 80%
- pest or weed control at 80 g/ha (ABUTH [11]; Abutilon theophrasti, 504 h, 80 g/ha, scored visually after 3 weeks vs untreated controls (100% = plants have died, 0% = like control plants)): 100%
- pest or weed control at 20 g/ha (ABUTH [11]; Abutilon theophrasti, 504 h, dosage 20 g/ha, scored visually after 3 weeks vs untreated controls, 100% = plants have died, 0% = like control plants, read-out: Pre-emergence action against ABUTH (herbicidal activity in percent)): 100%
- pest or weed control at 80 g/ha (ALOMY [25]): 90%
- pest or weed control at 80 g/ha (AVEFA [12]; Avena fatua, 504 h): 90%
- pest or weed control at 20 g/ha (VIOTR [13]; Viola tricolor, 504 h): 80%
- pest or weed control at 5 g/ha (DIGSA [26]; 5 g/ha): 90%
- pest or weed control at 20 g/ha (DIGSA [26]; 20 g/ha): 90%
